Results on 1 substance are retold here after patent publication US8541200B2, “Cleavage of fusion proteins using Granzyme B protease” (Hoffmann-La Roche Inc., priority 2003, dated 2013).

Several values for one entry are separate records, joined by “and”; a condition that tells them apart may be missing. Equal entries are not always repeated.

Common to all, as to format: biochemical
A short description of series [1]: Colorimetric Granzyme B activity assay with Ac-IEPD-pNA (absorbance at 405 nm). On the procedure: GrB-H6 activity was measured using the following mix: 500 μl buffer, 2 μl 100 mM Ac-IEPD-pNA, and 5 μl GrB-H6.
Recombinant self-activating human Granzyme B derivatives IEPD-GrB-H6 and IEAD-GrB-H6 were produced as described in Example 2 by using the expression vectors pT7-IEPD-GrB-H6 and pT7-IEAD-GrB-H6 described in Example 1. The IEAD-GrB-H6 and IEPD-GrB-H6 proteins were eluted from the SP Sepharose columns and stored at 4° C. for 2 days before the activity of the respective top fractions were determined by using a colorimetric assay. For this purpose the following was mixed: 500 μl buffer (100 mM HEPES pH 7.5), 2 μl 100 mM Ac-IEPD-pNA, and 5 μl protein solution. The change in absorption was then determined at 405 nm during 3 min. The activity was further determined after additional incubation for 1 and 2 days at 4° C.
The activity of the activated and purified GrB-H6 was measured in different buffers using the Ac-IEPD-pNA substrate: 500 μl buffer, 2 μl 100 mM Ac-IEPD-pNA, and 5 μl GrB-H6. The ΔOD405/min was calculated from the first 0.75 min unless otherwise noted.

Series [2] in a line: Specificity on chromogenic substrates. The conditions noted are these: 400 μM substrate, 1 μg protease, 100 mM HEPES pH 7.75; normalized to Ac-IEPD-pNA = 100%. As to the method: The activity assay was carried out in 500 μl 100 mM HEPES pH 7.75 with a substrate concentration of 400 μM and 1 μg protease added for each measurement. All measurements were done at 23° C. and in triplicate, and the activities obtained were normalized by setting the activity measured on Ac-IEPD-pNA to 100%.
The specificity of both the GrB-H6 and the GrB-H6 C228F protease was examined using the chromogenic substrates Ac-LEED-pNA, Ac-VEID-pNA, Ac-YVAD-pNA, and Ac-DEVD-pNA, in addition to the Ac-IEPD-pNA substrate applied in Example 4. The activity assay was again carried out in 500 μl 100 mM HEPES pH 7.75 with a substrate concentration of 400 μM. For each measurement 1 μg of protease was added to the assay cuvette. All measurements were done in triplicate, and the activities obtained were normalized by setting the activity measured on Ac-IEPD-pNA to 100%.

Series [3] in a line: Steady state kinetic parameters KM and kcat, Lineweaver-Burk plot. To be noted: 100 mM HEPES pH 7.75; 20 nM protease. As to the method:
To estimate the steady state kinetic parameters KM and kcat, the same colorimetric assay as described above was used with a total volume of 500 μl in the assay cuvette. The assay buffer was 100 mM HEPES pH 7.75, and both GrB-H6 and GrB-H6 C228F were used in a concentration of 20 nM in each measurement. To construct a Lineweaver-Burk plot the following substrate concentrations were used: 5, 40, 150, 300, and 600 μM.

Consider “GrB-H6: activated human Granzyme B with C-terminal hexa-His tag, from cleavage/activation of pro-IEGR-GrB-H6 by FXa”, for which the “Activity (ΔOD405/min)” value was 0.1948 ΔOD405/min in series [1] (50 mM NaCl, 25 mM Tris-HCl pH 7.4, 0.5 μg GrB-H6); 0.1970 ΔOD405/min in series [1] (100 mM HEPES pH 7.2, 0.5 μg GrB-H6); 0.2167 ΔOD405/min in series [1] (100 mM HEPES pH 7.4 + 50 mM KCl, 0.5 μg GrB-H6); 0.1993 ΔOD405/min and 0.1938 ΔOD405/min in series [1] (100 mM HEPES pH 7.4 + 50 mM NaCl, 0.5 μg GrB-H6); 0.2273 ΔOD405/min and 0.2328 ΔOD405/min in series [1] (100 mM HEPES pH 7.4, 0.5 μg GrB-H6); 0.2425 ΔOD405/min in series [1] (100 mM HEPES pH 7.5 + 5 mM Ca^2+, 0.5 μg GrB-H6). Moreover, the “Activity (ΔOD405/min)” value in series [1] (100 mM HEPES pH 7.5, 0.5 μg GrB-H6) is on record as 0.2350 ΔOD405/min; in series [1] (100 mM KCl, 50 mM Tris-HCl pH 7.4, 0.5 μg GrB-H6) it was 0.1662 ΔOD405/min; in series [1] (100 mM NaCl, 50 mM Tris-HCl pH 7.4, 0.5 μg GrB-H6), 0.1682 ΔOD405/min; in series [1] (TN pH 7.0, 1 μg GrB-H6), 0.2794 ΔOD405/min; in series [1] (TN pH 7.4 + 5 mM Ca^2+, 0.5 μg GrB-H6) it was 0.1401 ΔOD405/min; in series [1] (TN pH 7.4 + 5 mM Mg^2+, 0.5 μg GrB-H6) it was 0.1491 ΔOD405/min. In addition, the “Activity (ΔOD405/min)” value in series [1] (TN pH 7.4 + 0.1% TWEEN20, 0.2 μg GrB-H6, (3 min)) is 0.0303 (3 min) ΔOD405/min; in series [1] (TN pH 7.4 + 0.1% TWEEN20, 0.5 μg GrB-H6) it was 0.0887 ΔOD405/min; in series [1] (TN pH 7.4, 0.2 μg GrB-H6, (3 min)) it was 0.0245 (3 min) ΔOD405/min; in series [1] (TN pH 7.4, 0.5 μg GrB-H6), 0.0835 ΔOD405/min and 0.1082 ΔOD405/min; in series [1] (TN pH 7.4, 1 μg GrB-H6) it was 0.2624 ΔOD405/min and 0.2930 ΔOD405/min; in series [1] (TN pH 8.1, 1 μg GrB-H6, (1 min)), 0.2213 (1 min) ΔOD405/min. Further, in series [1] (100 mM NaCl, 50 mM Tris-HCl pH 8.0), the “GrB activity, before FXa removal” value is listed as 0.1401 ΔOD405/min. In series [1] (100 mM NaCl, 50 mM Tris-HCl pH 8.0, top fraction of SP Sepharose eluate), the “GrB activity, after FXa removal” value is 0.2213 ΔOD405/min. Moreover, the “best buffer for activity of the buffers evaluated” value in series [1] (buffers of Table 6) is 100 mM HEPES pH 7.4-7.5. Besides, the “specificity on chromogenic substrates” value in series [2] is recorded as “at least as specific as the GrB-H6 C228F protease”. Moreover, the Km (commonly the concentration of substrate that gives half-maximal velocity) in series [3] came out at 66.9 µM. Also, the kcat – broadly, the maximal rate divided by the concentration of active sites – in series [3] came out at 5.03 s⁻¹.
